“Also recorded” adds a separate entry of the source. Where two headings read alike, the source gives them in different places.
Columns and labels:
[1] = system: HpNoco2 (virulent Peronospora); assay: HpNoco2 disease resistance assay on soil grown seedlings (spore / sporangiophore counts 7 dpi); assay type: in vivo, Arabidopsis; conditions: for efficiency in inducing resistance to HpNoco2 (defense inducing activity): infection 48 hours after treatment, structure-activity analysis
Protocol: (§1) (A) RT-PCR analysis of CaBP22 and WRKY70 expression in Col-0 (wild type) and mutant backgrounds 24 hours after spraying 2 week old seedlings with water (un), 1 mM SA, or 100 μM DCA. ACT8 is shown as loading control. […] (B) Two week old seedlings were sprayed with virulent HpNoco2 24 hours after pre-treatment with 100 uM DCA. Spores were counted 7 days after spray infection. Means and standard errors were calculated from three independent experiments. Mann-Whitney U test (p<0.05) was used to determine significant differences among mutants.
(§2) A: Extent of disease susceptibility/resistance determined by counting the numbers of Peronospora sproangiophores of 17 day old seedlings 7 d after spray-inoculation with 5E4 HpNoco2 spores/ml. 24 h prior to infection with Noco2 the aerial parts of the soil grown seedlings were sprayed with the indicated concentrations of DCA (compound 67) or SA. Three replicates each with at least 30 seedlings per treatment gave similar results. […] Concentrations higher than 100 μM caused cell death, as indicated by reduced GUS staining.
(§3) (A) Chemical structures of DCA analogs analyzed. (B) Fluorometric analysis of GUS activities induced by DCA analogs. Proteins were extracted from 2 week old soil grown Col-0 seedlings 48 hours after spray-treatment with compounds at the indicated concentrations (uM). Means and standard errors calculated from 3 independent replicates. (c) HpNoco2 growth inhibition assay. 2 week old soil grown Col-0 seedlings were spray-infected with HpNoco2 48 hours after treatment with varying concentrations (uM) of each DCA analog. Seedlings were assayed 7 dpi for Peronospora growth (spore counts). 100% inhibition=0 spores. Assay was repeated three times with similar results.
DCA induces disease resistance. Time-course experiment with 2-week old Col-0 seedlings that were sprayed with 100 uM of the respective compounds at the indicated times prior to HpNoco2 (3×10^4 spores/ml) spray-infection. Spores were counted 7 dpi.

[2] = system: −333_CaBP22::GUS; assay: GUS activity after spray-treatment of soil grown seedlings (structure-activity analysis, FIG. 5B, FIG. 8B); assay type: in vivo, Arabidopsis; conditions: for efficiency in inducing −333_CaBP22::GUS expression (defense inducing activity): 48 hours after spray-treatment, structure-activity analysis
Protocol: as §3, with “(B) Fluorometric analysis of GUS activities induced by DCA analogs.” left out, “spores.” for “spores. Assay was repeated three times with similar results.”
DCA and the known SA-analog INA are structurally related. To compare their activities and to gain further understanding on structural features required for their defense inducing activities, a structure function analysis (SAR) was performed using multiple derivatives of DCA and INA (FIG. 8A).

[3] = system: Pseudomonas syringae DC3000 (Pst DC3000); assay: Pst DC3000 disease resistance in Arabidopsis seedlings (dip inoculation, cfu); assay type: in vivo; conditions: 100 uM
Protocol: (§4) (A &B) 14 day old soil grown Arabidopsis Col-0 seedlings were pre-treated with 100 uM of the indicated chemical then dip inoculated with Pst DC3000. (A) Photos taken 5 dpi. (B) Quantification of Pst DC3000 growth by counting colony forming units (cfu) at day 0 (grey bars) or day 3 (black bars). Significant differences were determined by Mann-Whitney U tests (p<0.05). (C) Pst DC3000 grown in liquid culture with 100 um of the indicated chemicals or 100 ug/ml hygromycin (HYG). OD600 reflecting bacterial density was measured at indicated times (hours) after inoculation. Standard errors were all less than 0.05 so are not visible on the graph. (D) Two week old cherry tomato seedlings sprayed 0.5 mM DCA, 4 mM SA or mock-treated two days prior to swab inoculation with Pst DC3000 (OD600=0.4). Photos were taken 6 days after Pst challenge.

[4] = system: −333_CaBP22::GUS seedlings; assay: toxic effects on plants after spraying aerial parts of seedlings; assay type: in vivo
Protocol: as §2

[5] = system: Pst DC3000; assay: Pst DC3000 disease symptoms in cherry tomato seedlings (swab inoculation); assay type: in vivo; conditions: 500 uM, sprayed two days prior to inoculation
Protocol: as §4

[6] = system: cluster of 131 Arabidopsis genes (Table 1); assay: Affymetrix ATH1 whole genome microarray of induced transcriptional responses; assay type: in vivo
Protocol: This transient activity of DCA functionally discriminates it from INA and allows us to precisely correlate molecular event, such as transcriptional changes, with disease resistance. Therefore we performed a set of microarray experiments with Affymetrix ATH1 Arabidopsis whole genome chips profiling DCA- and INA-induced transcriptional responses at 48 h and 6 d post treatment. […] The reference accession numbers and information can be used by one of skill in the art to obtain the sequences and additional information from public databases available at the time of filing.

[7] = system: CaBP22; assay: semiquantitative RT-PCR of CaBP22 expression; assay type: in vivo, Arabidopsis
Protocol: as §1, with “(A) RT-PCR analysis of CaBP22 and WRKY70 expression in Col-0 (wild type) and mutant backgrounds 24 hours after spraying 2 week old seedlings with water (un), 1 mM SA, or 100 μM DCA.” left out
As the CaBP22-induction by DCA is blocked in the wrky70 mutant, this compound can interfere with a signaling component that acts upstream from WRKY70 transcription and either independently of downstream from SA. Based on this DCA targets a WRKY70-dependent branch of the defense signaling network.

[8] = system: WRKY70; assay: semiquantitative RT-PCR of WRKY70 expression; assay type: in vivo, Arabidopsis
[9] = system: Pst DC3000; assay: Pst DC3000 growth in liquid culture (OD600); assay type: cell-based, Pseudomonas syringae; conditions: 100 um in liquid culture
[10] = system: −333_CaBP22::GUS; assay: −333_CaBP22::GUS reporter induction in one-week old seedlings grown in liquid medium (Xgluc staining / MUG assay); assay type: in vivo, Arabidopsis; conditions: for EC50: −333_CaBP22::GUS, MUG assay, read-out: EC50 value (effective concentration leading to a half-maximal response)
Protocol: A: Structure of DCA. B/C: Dose-response curves. One-week old −333_CaBP22::GUS seedlings were grown in liquid medium and incubated with the indicated concentrations of DCA (67) or SA for 24 h prior to Xgluc staining (blue, panel B) or quantitative assays for GUS activity using 4-methyl umbelliferyl-glucuronide (MUG, panel C).
LURP expression appears to be controlled by a multitude of defense regulators including AtWRKY70 and so far unknown transcription factors. […] Thus LURP-promoter/reporter systems are useful tools to screen for defense inducing chemicals. A 333_CaBP22::GUS line was used to screen chemical libraries of the Center for Plant Cell Biology at UC-Riverside for substances that induce activity of this reporter in the absence of pathogens. One week old seedlings of the reporter line grown in 96 well plates with liquid MS medium were treated with library chemicals at a final concentration of 4-20 microM in 0.001% DMSO and stained with X-Gluc to detect GUS activity 24 h later (FIG. 2). The library chemicals were transferred from 384 well plates to the 96 well screening plates by a “96 pin-tool” using a pipetting robot.
Most of the identified −333_CaBP22::GUS-inducers are structurally related to the defense hormone salicylic acid (SA). One of these compounds, 3,5-Dichloroanthranilic acid (DCA, FIG. 3A) to be particularly efficient in inducing −333_CaBP22::GUS expression. The chemical structure of this compound was confirmed by NMR and MS analyses. […] Thus, DCA has a high specificity for its cellular target. Consistent with this the EC50 value (effective concentration leading to a half-maximal response) of DCA is 6 uM (FIG. 3C), which is lower than the published EC50 value for PR1 induction by SA and its functional analog INA (65 and 10 uM, respectively; Wendehenne et al., 1998; Pillonel, 2001).

[11] = system: PR1; conditions: Wendehenne et al., 1998; Pillonel, 2001; read-out: published EC50 value for PR1 induction; cited from earlier work
[12] = most Arabidopsis defense signaling mutants

Compound: Nc1cccc(Cl)c1C(=O)O [6-Chloroanthranilic acid, reference compound]
- efficiency in inducing resistance to HpNoco2 (defense inducing activity) [1]: completely inactive
- efficiency in inducing −333_CaBP22::GUS expression (defense inducing activity) [2]: completely inactive

Compound: O=C(O)c1cccc(Cl)c1 [3-Chlorobenzoic acid, reference compound]
- efficiency in inducing resistance to HpNoco2 (defense inducing activity) [1]: 3-Chloroanthranilic acid is more active than 3-Chlorobenzoic acid
- efficiency in inducing −333_CaBP22::GUS expression (defense inducing activity) [2]: 3-Chloroanthranilic acid is more active than 3-Chlorobenzoic acid

Compound: Nc1c(Cl)cc(Cl)cc1C(=O)O [DCA, 3,5-Dichloroanthranilic acid]
- disease resistance to Pst DC3000 ([3]; Arabidopsis Col-0): triggered disease resistance
- suppression of bacterial growth (cfu) compared with SA and INA ([3]; day 3): more efficiently than SA or the frequently used SA analog INA
- concentrations causing cell death (reduced GUS staining) [4]: higher than 100 μM
- Pst DC3000 mediated disease symptoms in tomato [5]: suppressed Pst DC3000 mediated disease symptoms such as chlorosis
- resistance to HpNoco2 in npr1 mutant ([1]; 100 uM pre-treatment 24 h, npr1 mutant): slight reduction
- resistance to HpNoco2 in wrky70 mutant ([1]; 100 uM pre-treatment 24 h, wrky70 mutant): partially reduced
- duration of defense-inducing activity ([1]; 100 uM, time-course, FIG. 9): only transiently active
- time after treatment by which strong disease resistance is reached ([1]; 100 uM, time-course, FIG. 9): ≤ 1 h
- efficiency in inducing resistance to HpNoco2 (defense inducing activity) [1]: nearly identical; also recorded: equally efficient
- concentration giving efficient induction of disease resistance against virulent Peronospora (as low as) ([1]; sprayed on aerial parts of soil grown seedlings 24 h prior to HpNoco2): 10 µM
- up-regulation of cluster of 131 genes at 48 h post treatment [6]: significantly up-regulated
- up-regulation of cluster of 131 genes at 6 d post treatment [6]: not at 6 d post DCA treatment
- endogenous CaBP22 gene expression ([7]; 10 uM, wild type): activates
- CaBP22 expression in most mutants with deficiencies in defense signaling [7, 12]: wild type expression
- effect of nahG transgene on induction of CaBP22 ([7]; nahG (SA-catabolizing enzyme)): does not suppress
- CaBP22-induction in wrky70 mutant ([7]; wrky70 mutant): blocked
- WRKY70 expression ([8]; 10 uM, wild type): activates
- WRKY70 expression in most mutants with deficiencies in defense signaling [8, 12]: wild type expression
- effect of nahG transgene on induction of WRKY70 ([8]; nahG (SA-catabolizing enzyme)): does not suppress
- growth of Pst DC3000 in in vitro cultures [9]: does not affect growth
- EC50 ([10]; Arabidopsis thaliana, 24 h, 24 h): 6 µM
- concentration at which active as inducer of −333_CaBP22::GUS ([10]; liquid medium, 24 h, FIG. 3B): 0.1 µM
- active at x-fold lower concentrations than SA (−333_CaBP22::GUS induction) ([10]; versus SA, FIG. 3B): 10 fold
- EC50 ([10]; 24 h): 7 µM
- efficiency in inducing −333_CaBP22::GUS expression (defense inducing activity) [2]: nearly identical
- reporter gene expression after spraying aerial parts ([2]; spraying of 10-100 uM): induced reporter gene expression

Compound: O=C(O)c1cc(Cl)nc(Cl)c1 [INA, 2,6-dichloroisonicotinic acid, reference compound]
- EC50 [11]: 10 µM
- duration of defense-inducing activity ([1]; 100 uM, time-course, FIG. 9): lasts much longer leading to strong disease resistance for the entire duration of the experiment
- efficiency in inducing resistance to HpNoco2 (defense inducing activity) [1]: nearly identical; also recorded: equally efficient
- up-regulation of cluster of 131 genes at 48 h post treatment [6]: significantly up-regulated
- up-regulation of cluster of 131 genes at 6 d post treatment [6]: significantly up-regulated
- efficiency in inducing −333_CaBP22::GUS expression (defense inducing activity) [2]: nearly identical

Compound: Nc1c(Cl)cccc1C(=O)O [3-Chloroanthranilic acid]
- efficiency in inducing resistance to HpNoco2 (defense inducing activity) [1]: reduced defense inducing activities
- efficiency in inducing −333_CaBP22::GUS expression (defense inducing activity) [2]: reduced defense inducing activities

Compound: O=C(O)c1cc(Cl)cc(Cl)c1 [3,5-Dichlorobenzoic acid, reference compound]
- efficiency in inducing resistance to HpNoco2 (defense inducing activity) [1]: DCA is more active than 3,5-Dichlorobenzoic acid
- efficiency in inducing −333_CaBP22::GUS expression (defense inducing activity) [2]: DCA is more active than 3,5-Dichlorobenzoic acid

Compound: O=C(O)c1ccccc1O [SA, salicylic acid]
- EC50 [11]: 65 µM
- efficiency in inducing resistance to HpNoco2 (defense inducing activity) [1]: less efficiently than DCA or INA
- efficiency in inducing −333_CaBP22::GUS expression (defense inducing activity) [2]: less efficiently than DCA or INA

Compound: O=C(O)c1ccccc1 [benzoic acid, reference compound]
- efficiency in inducing resistance to HpNoco2 (defense inducing activity) [1]: nearly completely inactive
- efficiency in inducing −333_CaBP22::GUS expression (defense inducing activity) [2]: nearly completely inactive

Compound: Nc1ccccc1C(=O)O [anthranilic acid, reference compound]
- efficiency in inducing resistance to HpNoco2 (defense inducing activity) [1]: nearly completely inactive
- efficiency in inducing −333_CaBP22::GUS expression (defense inducing activity) [2]: nearly completely inactive

Compound: Nc1ccc(Cl)cc1C(=O)O [5-Chloroanthranilic acid]
- efficiency in inducing resistance to HpNoco2 (defense inducing activity) [1]: reduced defense inducing activities
- efficiency in inducing −333_CaBP22::GUS expression (defense inducing activity) [2]: reduced defense inducing activities

— patent publication US8603945B2, “Methods and compositions for providing salicyclic acid-independent pathogen resistance in plants” (The Regents of the University of California, priority 2008, dated 2013)
